Data taken from patent US10213415B2, “Compounds as opioid receptor modulators” (JANSSEN PHARMACEUTICA NV, priority 2004, dated 2019).
Values joined by “and” are separate entries in the source; they are usually repeats but may differ in a detail not shown here. Equal entries are not always repeated. Where two headings read alike, the source gives them in different places.

Columns and labels:
delta opioid receptor = biological target: T1, delta opioid receptor (Rattus norvegicus, UniProt P33533); assay: Rat Brain Delta Opioid Receptor Binding Assay ([3H]DPDPE); details: rat forebrain membranes, margin of error 10-20%
T1 construct: from tissue; host or cells: forebrain of male Wistar rats
T1 sequence (P33533 whole entry): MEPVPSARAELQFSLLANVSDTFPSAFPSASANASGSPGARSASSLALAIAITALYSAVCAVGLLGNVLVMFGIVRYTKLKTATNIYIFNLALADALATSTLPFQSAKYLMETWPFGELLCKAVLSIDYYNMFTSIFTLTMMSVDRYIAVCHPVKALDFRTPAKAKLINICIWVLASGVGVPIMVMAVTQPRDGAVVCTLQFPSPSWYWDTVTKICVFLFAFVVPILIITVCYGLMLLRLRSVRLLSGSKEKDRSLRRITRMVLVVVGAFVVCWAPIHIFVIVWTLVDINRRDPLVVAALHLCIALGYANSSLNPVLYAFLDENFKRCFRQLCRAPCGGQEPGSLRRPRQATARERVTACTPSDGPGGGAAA
Procedure, shortened: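 Rat (male Wistar) forebrain membranes in 50 mM Tris-HCl pH 7.4 with 5 mM MgCl2, incubated with ~4 nM [3H]DPDPE for 2.5 h at 25 °C. Bound ligand collected by filtration and scintillation counting. Single-concentration data given as % inhibition of specific binding; concentration series fitted to Ki.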

mu opioid receptor = biological target: T2, mu opioid receptor (Rattus norvegicus, UniProt P33535); assay: Rat Brain Mu Opioid Receptor Binding Assay (and Version 2a, [3H]DAMGO); details: rat forebrain membranes, margin of error 10-20%
T2 construct: from tissue; host or cells: forebrain of male Wistar rats
T2 sequence (P33535 whole entry): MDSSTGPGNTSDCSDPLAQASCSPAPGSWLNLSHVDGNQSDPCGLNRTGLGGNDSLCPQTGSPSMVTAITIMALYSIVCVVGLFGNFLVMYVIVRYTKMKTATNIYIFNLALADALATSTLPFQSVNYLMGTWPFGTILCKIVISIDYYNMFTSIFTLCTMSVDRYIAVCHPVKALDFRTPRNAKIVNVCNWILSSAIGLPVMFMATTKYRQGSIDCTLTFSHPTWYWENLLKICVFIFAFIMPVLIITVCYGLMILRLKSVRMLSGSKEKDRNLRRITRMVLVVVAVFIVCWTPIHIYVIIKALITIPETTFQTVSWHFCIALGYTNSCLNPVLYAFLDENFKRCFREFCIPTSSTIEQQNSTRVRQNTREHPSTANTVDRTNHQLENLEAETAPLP
Procedure, shortened: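 Rat forebrain membranes from male Wistar rats in 50 mM Tris-HCl pH 7.4 with 5 mM MgCl2 incubated with 0.8 nM [3H]DAMGO for 2.5 h at 25° C., then filtered and counted. Data given as % inhibition of specific binding at single concentrations or as Ki from concentration series.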

human mu opioid receptor = biological target: T3, human mu opioid receptor (Homo sapiens, UniProt P35372); assay: Human Mu Opioid Receptor Binding Assay (CHO membranes, 3H-Damgo)
T3 construct: purchased Perkin Elmer RBHOMM400UA; host or cells: Chinese Hamster Ovary cells (recombinant expression)
T3 sequence (P35372 whole entry): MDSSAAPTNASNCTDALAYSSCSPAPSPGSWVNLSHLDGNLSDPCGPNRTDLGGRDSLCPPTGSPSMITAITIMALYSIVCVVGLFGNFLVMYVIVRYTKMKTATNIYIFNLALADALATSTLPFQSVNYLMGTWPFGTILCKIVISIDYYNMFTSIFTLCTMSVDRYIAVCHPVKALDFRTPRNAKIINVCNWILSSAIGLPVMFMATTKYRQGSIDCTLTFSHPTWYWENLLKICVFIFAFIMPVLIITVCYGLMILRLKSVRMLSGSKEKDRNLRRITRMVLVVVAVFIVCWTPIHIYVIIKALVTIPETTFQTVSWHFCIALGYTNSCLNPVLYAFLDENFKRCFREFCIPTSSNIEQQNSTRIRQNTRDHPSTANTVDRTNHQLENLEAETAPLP
Procedure, shortened: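 Membranes from CHO cells expressing human mu opioid receptor, 300 μg/mL, in 50 mM Tris pH 7.5, 5 mM MgCl2. Incubated with compound and ³H-Damgo (3.6 nM before mixing) for 2 h at room temperature, filtered, counted by scintillation. Nonspecific binding with 1 μM unlabelled Damgo.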

SMILES	Ki (delta opioid receptor; read-out: r Ki δ)	Ki (mu opioid receptor; read-out: r Ki μ)	Ki (human mu opioid receptor; read-out: hKi μ)	Ki (delta opioid receptor; r Ki δ) [nM]	Ki (mu opioid receptor; r Ki μ)	Ki (human mu opioid receptor; hKi μ) [nM]
Cc1cc(O)cc(C)c1C[C@H](N)C(=O)N(Cc1ccccc1)[C@@H](C)c1nc(-c2ccccc2)c[nH]1 [Cpd 218]	1.45 nM	0.03 nM	3.92 nM			
COc1ccc(CN(C(=O)[C@@H](N)Cc2c(C)cc(O)cc2C)[C@@H](C)c2nc(-c3ccccc3)c[nH]2)cc1C(=O)O [Cpd 260]	0.13 nM	0.24 nM	0.58 nM			
COc1ccc(CN(C(=O)[C@@H](N)Cc2ccc(C(N)=O)cc2)[C@@H](C)c2nc(-c3ccccc3)c[nH]2)cc1C(=O)O [Cpd 4]	11 nM and 17 nM	2.41 nM	5.5 nM			
Cc1cc(O)cc(C)c1C[C@H](N)C(=O)N(C)[C@H](C)c1nc(-c2ccccc2)c[nH]1 [Cpd 206]	5.8 nM	0.2 nM				
COc1ccc(CN(Cc2nc(-c3ccccc3)c[nH]2)C(=O)[C@@H](N)Cc2ccc(C(N)=O)cc2)cc1C(=O)O [Cpd 5]	630 nM and 183 nM	1.19 nM	3.9 nM			
Cc1cc(O)cc(C)c1C[C@H](N)C(=O)N(C)Cc1nc(-c2ccccc2)c[nH]1 [Cpd 199]	26.3 nM	0.3 nM	0.29 nM			
COC(=O)c1cc(CN(C(=O)[C@@H](N)Cc2c(C)cc(C(N)=O)cc2C)[C@@H](C)c2nc(-c3ccccc3)c[nH]2)ccc1OC [Cpd 17]	60 nM	0.22 nM	2.2 nM			
Cc1cc(O)cc(C)c1C[C@H](N)C(=O)N(Cc1cccc(C(=O)O)c1)[C@@H](C)c1nc(-c2ccccc2)c[nH]1 [Cpd 48]		0.14 nM	0.4 nM			
Cc1cc(O)cc(C)c1C[C@H](N)C(=O)N(Cc1ccnc2ccccc12)[C@@H](C)c1nc(-c2ccccc2)c[nH]1 [Cpd 246]	0.035 nM	0.15 nM	5.63 nM			
Cc1cc(C(N)=O)cc(C)c1C[C@H](N)C(=O)N(Cc1ccc(C(=O)O)cc1)[C@@H](C)c1nc(-c2ccccc2)c[nH]1 [Cpd 50]	0.58 nM	1.68 nM	1.4 nM			
COc1ccc(CN(C(=O)[C@@H](N)Cc2c(C)cc(C(N)=O)cc2C)[C@@H](C)c2nc(-c3ccccc3)c[nH]2)cc1OC [Cpd 75]	0.66 nM	0.51 nM	2.6 nM			
COC(=O)c1ccc(CN(C(=O)[C@@H](N)Cc2ccc(C(N)=O)cc2)[C@@H](C)c2nc(-c3ccccc3)c[nH]2)o1 [Cpd 303]		3.87 nM	3.8 nM			
CC(C)N(C(=O)[C@@H](N)Cc1ccc(O)cc1)[C@@H](C)c1nc(-c2ccccc2)c[nH]1 [Cpd 225]	112 nM	0.73 nM	1.4 nM			
C[C@H](c1nc(-c2ccccc2)c[nH]1)N(Cc1ccccc1)C(=O)[C@@H](N)Cc1ccc(O)cc1 [Cpd 221]	9.58 nM	0.36 nM	0.42 nM			
Cc1ccccc1-c1nc(CN(C(=O)[C@@H](N)Cc2c(C)cc(O)cc2C)C(C)C)[nH]c1C [Cpd 165]	23.6 nM	0.07 nM	0.45 nM			
Cc1cc(O)cc(C)c1C[C@H](N)C(=O)N(Cc1nc(-c2cc(C(F)(F)F)cc(C(F)(F)F)c2)c(C)[nH]1)C(C)C [Cpd 164]	120 nM	0.38 nM	16.3 nM			
Cc1cc(C(N)=O)cc(C)c1C[C@H](N)C(=O)N(Cc1ccccc1)[C@@H](C)c1nc(-c2ccccc2)c[nH]1 [Cpd 114]	12 nM	0.26 nM	1.39 nM			
CCN(C(=O)[C@@H](N)Cc1c(C)cc(O)cc1C)[C@@H](C)c1nc(-c2ccccc2)c[nH]1 [Cpd 216]	1.14 nM	0.04 nM				
Cc1cc(C(N)=O)cc(C)c1C[C@H](N)C(=O)N(Cc1cccc(C(=O)O)c1)[C@@H](C)c1nc(-c2ccccc2)c[nH]1 [Cpd 227]	0.08 nM and 0.46 nM	0.96 nM	1.92 nM			
Cc1cc(C(N)=O)cc(C)c1C[C@H](N)C(=O)N(Cc1cccc(-c2nnn[nH]2)c1)[C@@H](C)c1nc(-c2ccccc2)c[nH]1 [Cpd 242]	0.18 nM	0.59 nM	2.35 nM			

SMILES	Ki (delta opioid receptor; read-out: r Ki δ)	Ki (mu opioid receptor; read-out: r Ki μ)	Ki (human mu opioid receptor; read-out: hKi μ)	Ki (delta opioid receptor; r Ki δ) [nM]	Ki (mu opioid receptor; r Ki μ)	Ki (human mu opioid receptor; hKi μ) [nM]
CCN(C(=O)[C@@H](N)Cc1ccc(O)cc1)[C@H](C)c1nc(-c2ccccc2)c[nH]1 [Cpd 214]	308 nM	44 nM	29 nM			
Cc1cc(O)cc(C)c1C[C@H](N)C(=O)N(Cc1nc(-c2ccccc2)c(C)[nH]1)C(C)C [Cpd 166]	5.58 nM and 12 nM	0.03 nM and 0.07 nM	0.39 nM and 0.5 nM			
Cc1cc(O)cc(C)c1C[C@H](N)C(=O)N(Cc1nc(-c2ccc(F)cc2)c(C)[nH]1)C(C)C [Cpd 163]	4.51 nM	0.03 nM	0.67 nM			
COc1ccc(CN(C(=O)[C@@H](N)Cc2c(C)cc(C(N)=O)cc2C)[C@@H](C)c2nc(-c3ccc(I)cc3)c[nH]2)cc1C(=O)O [Cpd 289]		0.25 nM	2.2 nM			
C[C@H](c1nc(-c2ccccc2)c[nH]1)N(C)C(=O)[C@@H](N)Cc1ccc(C(N)=O)cc1 [Cpd 203]	49.3 nM	29.1 nM	13.7 nM			
CC(C)N(Cc1nc(-c2ccccc2)c[nH]1)C(=O)[C@@H](N)Cc1ccc(O)cc1 [Cpd 195]	306 nM	9.29 nM	9.8 nM			
COc1ccc(CN(C(=O)[C@@H](N)Cc2c(C)cc(C(N)=O)cc2C)[C@@H](C)c2nc(-c3ccccc3)c[nH]2)cc1-c1nnn[nH]1 [Cpd 8]	0.43 nM and 0.15 nM	0.51 nM	2.5 nM and 4.4 nM			
Cc1cc(O)cc(C)c1C[C@H](N)C(=O)N(Cc1nc(-c2ccccc2)c[nH]1)CC1CC1 [Cpd 192]	7.64 nM	0.09 nM	0.62 nM			
Cc1cc(O)cc(C)c1C[C@H](N)C(=O)N(C)[C@@H](C)c1nc(-c2ccccc2)c[nH]1 [Cpd 207]	5.3 nM and 5.37 nM and 14.7 nM	0.05 nM and 0.08 nM and 0.1 nM				
Cc1cc(O)cc(C)c1C[C@H](N)C(=O)N(C)[C@@H](C)c1nc(Cc2ccccc2)c[nH]1 [Cpd 205]	4.44 nM	0.14 nM				
CCN(C(=O)[C@@H](N)Cc1ccc(O)cc1)[C@@H](C)c1nc(-c2ccccc2)c[nH]1 [Cpd 215]	126 nM	0.43 nM	1.5 nM			
Cc1cc(O)cc(C)c1C[C@H](N)C(=O)N(Cc1nc(-c2ccccc2)c[nH]1)C(C)C [Cpd 194]	14.8 nM	0.06 nM	0.13 nM			
COc1ccc(CN(C(=O)[C@@H](N)Cc2ccc(O)cc2)[C@@H](C)c2nc(-c3ccccc3)c[nH]2)cc1C(=O)O [Cpd 261]	8.01 nM	0.79 nM	2.58 nM and 1.3 nM			
C[C@@H](c1nc(-c2ccccc2)c[nH]1)N(Cc1ccccc1)C(=O)[C@@H](N)Cc1ccc(O)cc1 [Cpd 219]	87.8 nM	0.87 nM	16.2 nM			
Cc1cc(O)cc(C)c1C[C@H](N)C(=O)N(Cc1nc(-c2ccccc2)c[nH]1)C1CCCCC1 [Cpd 190]	13.8 nM	2.61 nM				
Cc1cc(C(N)=O)cc(C)c1C[C@H](N)C(=O)N(Cc1ccc(C(=O)O)o1)[C@@H](C)c1nc(-c2ccccc2)c[nH]1 [Cpd 256]	3.82 nM	7.08 nM	2 nM			
COC(=O)c1ccc(CN(C(=O)[C@@H](N)Cc2c(C)cc(C(N)=O)cc2C)[C@@H](C)c2nc(-c3ccccc3)c[nH]2)o1 [Cpd 257]		1.22 nM	3.4 nM			
COc1ccc(CN(C(=O)[C@@H](N)Cc2c(C)cc(C(N)=O)cc2C)[C@@H](C)c2nc(-c3ccccc3)c[nH]2)cc1C(=O)O [Cpd 18]				0.38 to 14.4	0.75 nM and 1.1 nM	1.7
CCN(C(=O)[C@@H](N)Cc1c(C)cc(O)cc1C)[C@H](C)c1nc(-c2ccccc2)c[nH]1 [Cpd 217]	5.4 nM	1.08 nM				
